Source: patent US10807958B2, “1,4-bis(3-aminopropyl)piperazine derivative and its use” (INSERM (Institut National de la Sante et de la Recherche …, priority 2015, dated 2020)

System: Thy-Tau22 mice
Test: Morris water maze spatial memory, Thy-Tau22 mice
Type: in vivo, mouse
Details: 4 months
Description: Wild-type C57BL/6J animals of 3 months were purchased at Charles Rivers Laboratories (France) and were allow to acclimate in the animal facility for at least one week before any treatment. Thy-Tau22 transgenic colonies (C57BL/6J genetic background) were obtained by crossing heterozygous Thy-Tau22 males with C57BL/6 WT females. […] In this model, a progressive development of NFT is observed in the hippocampus and amygdala, which parallels behavioral impairments (Schindowski et al., 2006). Furthermorever, in the hippocampus, hyper- and abnormally phosphorylated Tau species accumulate within the somato-dendritic area (Schindowski et al., 2006).
For animal treatment, animals were randomly distributed and the compound of Formula I was given in the drinking water at final concentration of 0.5 or 1 mg/kg. Drinking bottles were changed once per week, volume consumption was measured along the treatment period. Food consumption and body weight were assessed. In wild-type animals the pilot study of drug treatment was performed for one month to establish the innocuousness of the treatment with the compound of Formula I. This was based on the physiological, social and behavioural assessments. Thy-Tau22 males were treated for 4 months starting at 3 month old. All protocols were approved by the local ethics committee (n^∘342012, CEEA).
Before any behavioral test, exploratory and locomotion of treated and untreated animal were evaluated in a Open field (OF) 25 cm×25 cm arena. Four acquisitions in joined arena were performed simultaneously. Each mouse was placed in the arena and allowed to explore for at least 5 min. Parameters including distance, speed, velocity were acquired by video recording using the EthoVision video tracking equipment and software (Noldus, Information Technology, Paris, France) in a dedicated room. The anxiety, which could interfere with memory test, was evaluated by the elevated plus maze (EPM). […] Locomotion, distance, speed and velocity were measured as well as the number of arm entries, time spent in the open versus closed arms, percentage of open arm entries and time per minute spent in the open arms on a total of 5 min test.
Spatial learning and memory abilities were assessed in a standard hidden-platform acquisition and retention version of the Morris water maze task (Van der Jeugd et al., 2013). […] The time required to find the hidden rescue platform (escape latency) was used as a spatial learning index and was recorded using the Ethovision XT video tracking system (Noldus France). Swimming speed and total distance were also measured. 72 h after the acquisition phase, the hidden platform was removed and spatial memory was evaluated in a 60 s probe trial. […]

CC(C)CN(CCCN1CCN(CCCNc2c3c(nc4ccccc24)CCCC3)CC1)CC(C)C [compound of Formula I, N-[3-(4-{3-[Bis(2-methylpropyl)amino]propyl}piperazin-1-yl)propyl]-1,2,3,4-tetrahydroacridin-9-amine]
probe test, spatial memory in Thy-Tau22 mice (0.5 mg/kg, probe test 72 hours after last learning day): preserved | development of spatial memory impairments (ANOVA statistical analysis) (Thy-Tau22 mice, 0.5 mg/kg): protected or preserved | time spent in the target quadrant versus the others (Thy-Tau22 treated, 0.5 mg/kg, untreated spent equal % of time, FIG. 4B): more time | learning phase (distance to reach the platform) between the animal groups (WT and Thy-Tau22, treated or not with 0.5 mg/kg, FIG. 4A): not significantly different
